Here are results for eight compounds from ChEMBL document CHEMBL1154169, “Activity and molecular modeling of a new small molecule active against NNRTI-resistant HIV-1 mutants” (Eur J Med Chem, 2009).

The subject of series [1] is Mammalian orthoreovirus 1. The series can be described thus: Antiviral activity against Reovirus 1 assessed as protection against virus-induced cytopathogenicity by cell based MTT assay. In kind it is functional, organism-based. In general terms: Damage to the host cells serves as the signal in cytopathic effect assays.
For series [2], the system named is Bovine viral diarrhea virus 1. The series can be described thus: Antiviral activity against Bovine viral diarrhea virus infected in MDBK cells assessed as protection against virus-induced cytopathogenicity after 2 to 3 days by MTT assay. In kind it is functional, organism-based. The conditions noted are these: Bovine viral diarrhea virus isolates and strains.
Series [3] concerns Respiratory syncytial virus. Description: Antiviral activity against Respiratory syncytial virus assessed as reduction of virus plaque formation by cell based assay. In kind it is functional, organism-based. The conditions noted are these: human respiratory syncytial virus.
In series [4] the test system is Human immunodeficiency virus 1. The series can be described thus: Antiviral activity against NNRTI-resistant HIV1 N119 with reverse transcriptase Y181C mutant infected in human MT4 cells assessed as protection against virus-induced cytopathogenicity after 4 days by MTT assay. In kind it is functional, organism-based. The conditions noted are these: Human immunodeficiency virus 1, N119, MT4, 96 h.

The next series relates to Coxsackievirus B2. The series can be described thus: Antiviral activity against Coxsackievirus B2 infected in african green monkey Vero cells assessed as reduction of virus plaque formation after 3 days. In kind it is functional, organism-based. The conditions noted are these: Enterovirus B, 72 h.
Series [5] concerns Human immunodeficiency virus 1. Description: Antiviral activity against HIV1 EFV with reverse transcriptase K103R, V179D, P225H mutant infected in human MT4 cells assessed as protection against virus-induced cytopathogenicity after 4 days by MTT assay. In kind it is functional, organism-based. The conditions noted are these: Human immunodeficiency virus 1, EFV, MT4, 96 h.
For series [6], the system named is Human immunodeficiency virus 1. Description: Antiviral activity against HIV1 3B infected in human MT4 cells assessed as protection against virus-induced cytopathogenicity after 4 days by MTT assay. The conditions noted are these: Human immunodeficiency virus 1, 3B, MT4, 96 h. In kind it is functional, organism-based.
For series [7], the system named is Vesicular stomatitis virus. Description: Antiviral activity against Vesicular stomatitis virus assessed as reduction of virus plaque formation by cell based assay. In kind it is functional, organism-based.
The subject of series [8] is Human immunodeficiency virus 1. Description: Antiviral activity against NNRTI-resistant HIV1 A17 with reverse transcriptase K103N, Y181C mutant infected in human MT4 cells assessed as protection against virus-induced cytopathogenicity after 4 days by MTT assay. In kind it is functional, organism-based. The conditions noted are these: Human immunodeficiency virus 1, A17, MT4, 96 h.

In the next series the test system is Vaccinia virus. The series can be described thus: Antiviral activity against Vaccinia virus assessed as reduction of virus plaque formation by cell based assay. In kind it is functional, organism-based. To be noted: Orthopoxvirus vaccinia.
For another series, the system named is Yellow fever virus. The series can be described thus: Antiviral activity against Yellow fever virus infected in BHK-21 cells assessed as protection against virus-induced cytopathogenicity after 2 to 3 days by MTT assay. In kind it is functional, organism-based.
A short description of series [9]: Cytotoxicity against human MT4 cells assessed as reduction of cell viability after 4 days by MTT assay. In kind it is cell-based.
The test system of a further series is Poliovirus 1. The series can be described thus: Antiviral activity against Poliovirus Sb-1 infected in african green monkey Vero cells assessed as reduction of virus plaque formation after 3 days. To be noted: Enterovirus C, Sabin, 72 h. In kind it is functional, cell-based.
Series [10] deals with Human immunodeficiency virus. Description: Inhibition of HIV reverse transcriptase RNA-dependent polymerase activity after 30 mins by fluorescent microplate assay.

Turning to `c1cnc2cc3[nH]nnc3cc2c1`, the EC50 (in series [1]; in series [2]; in series [3]; in series [4]; with Coxsackievirus B2; in [5]) was over 100 µM each time. In addition, the 50% effective concentration (EC50) (in [6]; in [7]; in [8]; in the series on Vaccinia virus; in the series on Yellow fever virus; with Poliovirus 1) was over 100 µM throughout. Further, the CC50 – broadly, the concentration at which the toxic effect on the cells reaches its halfway point – at 96 h in series [9] was over 100 µM.
Turning to `c1cnc2c(c1)Cc1nn[nH]c1C2`, the EC50 (in series [1]; in series [2]; in series [3]; in series [4]; in the series with Coxsackievirus B2; in series [5]) was over 100 µM throughout. In addition, the EC50 (in series [6]; in [7]; in series [8]; with Vaccinia virus; in the series on Yellow fever virus; in the series on Poliovirus 1) was over 100 µM throughout. Besides, the CC50 at 96 h in series [9] is over 100 µM.
`CCOn1nnc2c1Cc1cccnc1C2`: the EC50 (in [1]; in [2]; in series [3]; in series [4]; in the series on Coxsackievirus B2; in series [5]) was over 100 µM throughout. Further, the EC50 (in series [6]; in series [7]; in series [8]; in the series on Vaccinia virus; in the series on Yellow fever virus; with Poliovirus 1) was over 100 µM throughout. The CC50 at 96 h in series [9] is over 100 µM.
As for `O=C1Nc2ccc(Cl)cc2[C@@](C#CC2CC2)(C(F)(F)F)O1` [EFAVIRENZ], the EC50 (as a rule, the midpoint of the concentration-response curve) amounted to 7 µM in series [5] and 0.06 µM in [8]. Also, the CC50 at 96 h in series [9] was determined as 45 µM.
Regarding `c1c2c(cc3[nH]nnc13)NCCC2`, the EC50 (in [1]; in series [2]; in series [3]; in [4]; in the series with Coxsackievirus B2; in series [5]) was over 100 µM each time. The EC50 (in series [6]; in [7]; in [8]; with Vaccinia virus; in the series with Yellow fever virus; with Poliovirus 1) was over 100 µM in each case. Also, the CC50 at 96 h in [9] was over 100 µM.
In the case of `Cc1ccnc2c1NC(=O)c1cccnc1N2C1CC1` [NEVIRAPINE], the EC50 in [4] was 7 µM; in series [5], over 20 µM; in series [8], over 20 µM. For the same compound, in [9], the CC50 at 96 h is over 100 µM.
Regarding `[O-][n+]1n[nH]c2c(Cl)c3ncccc3cc21`, the EC50 (in series [1]; in series [2]; in series [3]; in series [4]; with Coxsackievirus B2; in series [5]) was over 100 µM each time. In addition, the EC50 (in series [6]; in series [7]; in series [8]; in the series on Vaccinia virus; in the series on Yellow fever virus; with Poliovirus 1) was over 100 µM in each case. Moreover, the CC50 at 96 h in series [9] was over 100 µM.
With `[O-][n+]1n[nH]c2c1Cc1cccnc1C2`, in [10], the Activity entry was “Dose-dependent effect”. In addition, the EC50 in series [1] was over 100 µM; in series [2], over 100 µM; in series [3], over 100 µM; in [4], 4 µM; in the series on Coxsackievirus B2, over 100 µM; in [5] it was 9 µM. Further, the concentration giving a half-maximal response (EC50) is 12 µM in series [6]; over 100 µM in series [7]; 10 µM in [8]; over 100 µM in the series on Vaccinia virus; over 100 µM in the series on Yellow fever virus; over 100 µM with Poliovirus 1. Also, the CC50 at 96 h in series [9] was over 100 µM.
